Where two headings read alike, the source gives them in different places.
Assays:
monocyte TNF levels = conditions: gastric cancer patients, chemotherapy; cited from earlier work
[1] = tested on: A2780 ovarian tumour cells; conditions: cited from earlier work
MCF-7TXT cells [2] = assay: Clonogenic assay
Description: (§1) MCF-7 cells from the American Tissue Culture Collection (catalog number HTB-22) were cultured or selected for survival in increasing doses of docetaxel or paclitaxel as previously described [17;18]. The initial concentrations of docetaxel and paclitaxel used to begin selection (dose 1) were 0.51 and 0.56 nM, respectively. Cells selected to docetaxel concentrations of 1.11 nM (dose 8, MCF-7TXT8), 3.33 nM (dose 9, MCF-7TXT9), 5.00 nM (dose 10, MCF-7TXT10), 15 nM (dose 11, MCF-7TXT11), and 45 nM (dose 12, MCF-7TXT12) were used in this study. Numbers in subscripts of cell line names refer to the maximum docetaxel dose level to which the cells were exposed. The paclitaxel resistant cell line used in this study was selected in an identical manner to a final concentration of 6.64 nM paclitaxel (MCF-7TAX-1 cells; hyphenated number indicates the first cell line selection, not drug dose). […] A2780 ovarian carcinoma cells from the European Collection of Cell Cultures were also selected for resistance to docetaxel in an identical manner (A2780DXL cells), including the creation of “co-cultured control” A2780CC cells.
(§2) Cellular sensitivity to TNFα or docetaxel was assessed using a clonogenic assay as described previously. Docetaxel resistance factors for the cell lines were determined by dividing the IC50 for docetaxel in the taxane-resistant cell lines by the IC50 for MCF-7CC cells. […] (SN-50, 7 μg/ml). A control peptide at the same concentration (SN-50M) was used in the latter experiments to assess the specificity of NF-κB inhibition.

MCF-7CC cells [3] = assay: Clonogenic assay
Description: as §2

A2780DXL cells = assay: Clonogenic assay; type: cell-based, human; conditions: A2780DXL cells at maximally tolerated dose (405 nM)
Description: as §1, §2

A2780 cells = assay: sTNFα in cell culture medium by ELISA; type: cell-based, human
Description: (§3) Concentrated proteins from the medium of two million MCF-7CC, MCF-7TXT or A2780 cells (grown in culture in the absence or presence of various concentrations of paclitaxel or docetaxel) were assessed for levels of sTNFα or sTNFR1 using ELISA kits from R&D Systems™, following the manufacturer's instructions.

MCF-7TXT cells [4] = assay: sTNFα in cell culture medium by ELISA; type: cell-based, human; conditions: for sTNFα levels: 50 nM docetaxel
Description: as §3

MCF-7CC cells [5] = assay: sTNFα in cell culture medium by ELISA; type: cell-based, human
Description: as §3

[6] = tested on: serum levels of proinflammatory cytokines, including TNFα; conditions: castration-resistant prostate cancer patients, two days after administration; cited from earlier work
MCF-7TAX-1 cells [7] = conditions: cited from earlier work
[8] = breast cancer patients following docetaxel infusion; cited from earlier work
murine macrophages = conditions: cited from earlier work
MCF-7TAX-1 cells [9] = assay: sTNFα in cell culture medium by ELISA; type: cell-based, human; conditions: presence or absence of docetaxel
[10] = tested on: NF-κB p65 and p50 subunits; assay: NF-κB activity in nuclear extracts (TransAM NF-κB Family ELISA); type: cell-based, human; conditions: MCF-7CC and MCF-7TXT cells, 50 nM docetaxel 24 hours; except selection doses >15 nM (dose 11 and 12)
Description: MCF-7CC and MCF-7TXT cells were cultured in the presence or absence of 50 nM docetaxel for 24 hours. The activity of the NF-κB p65 and p50 subunits in 10 μg of nuclear extracts was assessed as outlined in the TransAM™ NF-κB Family ELISA kit (Active Motif™, Carlsbad, Calif.). Readings at 450 nm were normalized to the sum of all readings on the plate in order to compare across triplicate experiments.

MCF-7TAX-1 cells [11] = assay: Clonogenic assay; type: cell-based, human
Description: as §1, §2

MCF-7TXT cells [12] = conditions: cited from earlier work
C2C12 myotubes = conditions: cited from earlier work

In the case of `O=c1[nH]cc(F)c(=O)[nH]1` [5FU], the “monocyte TNF levels” value (monocyte TNF levels) is listed as “no effect”.

In the case of `CC[C@@]1(O)C(=O)OCc2c1cc1n(c2=O)Cc2cc3c(CN(C)C)c(O)ccc3nc2-1` [Topotecan], the “TNF alpha production / levels” value [1] is listed as “no effect on TNF alpha levels”.

In the case of `N.N.[Cl][Pt][Cl]` [cisplatin], the “TNF alpha production / levels” value [1] is given as “increased TNF alpha production”.

With `C[C@@H]1C[C@@H]([C@H](O)CC2CC(=O)NC(=O)C2)C(=O)[C@@H](C)C1` [cycloheximide] the “effect on TNFα cytotoxicity” value (MCF-7TXT cells [2]; MCF-7TXT10 cells, cycloheximide 5 μg/mL with 10 ng/mL TNFα, 24 hours) was “restored TNFα's ability to be cytotoxic” and the “effect on TNFα cytotoxicity” value (MCF-7CC cells [3]; cycloheximide 5 μg/mL with 10 ng/mL TNFα, 24 hours) was “only a small additional effect”.

With `CC(=O)O[C@@]12CO[C@@H]1C[C@H](O)[C@@]1(C)C(=O)[C@H](O)C3=C(C)[C@@H](OC(=O)[C@H](O)[C@@H](NC(=O)OC(C)(C)C)c4ccccc4)C[C@@](O)([C@@H](OC(=O)c4ccccc4)[C@H]21)C3(C)C` [docetaxel] the resistance to docetaxel (A2780DXL cells) was ~4000 fold, the sTNFα levels secreted (A2780 cells; A2780CC cells, 0.1 to 1 nM docetaxel, versus untreated) was “not significantly changed” and the “TNFα produced in response to docetaxel” value (A2780 cells; A2780 cells, compared with MCF-7CC cells, 48 hours) was “even greater amounts”. For the same compound, the “TNFα production and sTNFα release” value (A2780 cells; ovarian tumor cells, docetaxel 3 to 45 nM) was “can stimulate TNFα production and sTNFα release”, the sTNFα secretion (MCF-7TXT cells [4]; MCF-7TXT8 cells, 50 nM docetaxel versus untreated) was “no significant difference” and the “further increase of sTNFα production” value (MCF-7TXT cells [4]; MCF-7TXT9 cells, 50 nM docetaxel versus untreated) was 1.62 fold. For the same compound, the “further increase of sTNFα production” value (MCF-7TXT cells [4]; MCF-7TXT10 cells, 50 nM docetaxel versus untreated) was 1.27 fold, the sTNFα levels (MCF-7TXT cells [4]; MCF-7TXT11 cells) was “returned to basal levels” and the sTNFα levels (MCF-7TXT cells [4]; MCF-7TXT12 cells) was “returned to basal levels”. For the same compound, the “sTNFα levels in media” value (MCF-7CC cells [5]; MCF-7CC cells, 3 nM docetaxel, 48 hours) was “significantly elevated”, the sTNFα secretion (MCF-7CC cells [5]; MCF-7CC cells, 50 nM docetaxel versus untreated) was “no significant difference” and the sTNFα levels secreted (MCF-7CC cells [5]; MCF-7CC cells, 0.1 to 1 nM docetaxel, versus untreated) was “not significantly changed”. For the same compound, the “TNFα production and sTNFα release” value (MCF-7CC cells [5]; breast tumor cells, docetaxel 3 to 45 nM) was “can stimulate TNFα production and sTNFα release”, the “serum levels of proinflammatory cytokines, including TNFα” value [6] was “increased” and the docetaxel sensitivity (MCF-7TXT cells [2]; MCF-7TXT8 cells (selected to 1.1 nM docetaxel) versus MCF-7CC) was “did not affect docetaxel sensitivity”. For the same compound, the “resistance to docetaxel (IC50 ratio to MCF-7CC)” value (MCF-7TXT cells [2]; MCF-7TXT9 cells (selected to 3.33 nM docetaxel)) was 11.4 fold, the docetaxel resistance factor (MCF-7TXT cells [2]; MCF-7TXT10 cells (selected to 5 nM docetaxel)) was 16.6 and the docetaxel resistance factor (MCF-7TXT cells [2]; MCF-7TXT11 cells (selected to 15 nM docetaxel)) was 32.8. For the same compound, the docetaxel resistance factor (MCF-7TXT cells [2]; MCF-7TXT12 cells (selected to 45 nM docetaxel)) was 184, the “cross resistance to docetaxel” value (MCF-7TAX-1 cells [7]) was 46 fold and the “plasma levels of docetaxel” value [8] was 10 to 75 nM. For the same compound, the TNFα expression (murine macrophages; same study) was “no effect”, the “sTNFα levels versus MCF-7CC” value (MCF-7TAX-1 cells [9]) was “No differences” and the “p65 and p50 subunit binding to the NF-κB sequence” value [10] was “even higher levels”.

For `COc1cccc2c1C(=O)c1c(O)c3c(c(O)c1C2=O)C[C@@](O)(C(=O)CO)C[C@@H]3O[C@H]1C[C@H](N)[C@H](O)[C@H](C)O1` [doxorubicin], the TNFα expression (A2780 cells; A2780 ovarian tumour cells, FIG. 1E) is listed as “induces TNFα expression”, the TNFα expression (MCF-7CC cells [5]; MCF-7 breast tumour cells, FIG. 1D) is listed as “induces TNFα expression” and the “TNF alpha production / levels” value [1] is listed as “increased TNF alpha production”. The “monocyte TNF levels” value (monocyte TNF levels) was “no effect”.

In the case of `CO[C@@]12[C@H](COC(N)=O)C3=C(C(=O)C(C)=C(N)C3=O)N1C[C@@H]1N[C@@H]12` [mitomycin C], the “monocyte TNF levels” value (monocyte TNF levels) is given as “no effect”.

In the case of `CC(=O)O[C@H]1C(=O)[C@@]2(C)[C@H]([C@H](OC(=O)c3ccccc3)[C@]3(O)C[C@H](OC(=O)[C@H](O)[C@@H](NC(=O)c4ccccc4)c4ccccc4)C(C)=C1C3(C)C)[C@]1(OC(C)=O)CO[C@@H]1C[C@@H]2O` [paclitaxel], the paclitaxel resistance factor (MCF-7TAX-1 cells [11]; maximally tolerated dose of paclitaxel) is listed as 42, the “cross-resistance to paclitaxel, resistance factor” value (MCF-7TXT cells [12]; selection dose 11) is listed as 148 and the “cross-resistance to paclitaxel, resistance factor” value (MCF-7TXT cells [12]; selection dose 12) is listed as 251. For the same compound, the sTNFα production (A2780 cells; A2780 cells, paclitaxel at concentrations 15 nM, compared with docetaxel) was “even higher levels”, the sTNFα release (A2780 cells; ovarian tumor cells, paclitaxel 5 and 15 nM) was “dramatically increase sTNFα release” and the TNFα production (C2C12 myotubes; 4 hours following treatment, paclitaxel 10 nM to 10 μM) was “did not induce increased TNFα production”. For the same compound, the NF-κB activity (C2C12 myotubes) was “induced NF-κB activity” and the sTNFα release (murine macrophages; levels unachievable in patients) was “increase sTNFα release”.

For `CC[C@]1(O)C[C@@H]2CN(CCc3c([nH]c4ccccc34)[C@@](C(=O)OC)(c3cc4c(cc3OC)N(C)[C@H]3[C@@](O)(C(=O)OC)[C@H](OC(C)=O)[C@]5(CC)C=CCN6CC[C@]43[C@@H]65)C2)C1` [vinblastine], the “TNF alpha production / levels” value [1] is given as “increased TNF alpha production”.

For TNFα, the colony formation (MCF-7TAX-1 cells [11]; TNFα 50 or 100 ng/ml, relative to MCF-7TXT10) is given as “strong reductions in colony formation”, the NF-κB activity (C2C12 myotubes) is given as “induced NF-κB activity” and the “reduction of colony formation” value (MCF-7TXT cells [2]; MCF-7TXT8 cells, TNFα 10 ng/ml) is given as 66.6±1.7%. The “colony formation in absence or presence of TNFα” value (MCF-7TXT cells [2]; MCF-7TXT10 cells, TNFα 10 ng/mL) was “significant resistance to TNFα”, the “reductions in colony formation” value (MCF-7TXT cells [2]; MCF-7TXT10 cells, TNFα 50 ng/mL or 100 ng/mL, compared with MCF-7CC) was “much smaller” and the colony formation (MCF-7TXT cells [2]; MCF-7TXT12 cells, TNFα 10 ng/mL) was “increased colony formation”. For the same compound, the colony formation (MCF-7CC cells [3]; TNFα 50 or 100 ng/mL) was “very strongly reduced”.

— patent publication US20140274927A1, “TNF-Related Biomarkers For Assessing Cancer Cell Response To Treatment With Taxane And/Or Anthracycline Drugs” (priority 2013, published 2014)
